According to ChEMBL document CHEMBL4507284, “Data for DCP probe BI-1230” (2021):

What was measured:
[1] = molecular target: Serine/threonine-protein kinase PAK 6 (Homo sapiens) (UniProt Q9NQU5); settings: Compound concentration 1000.0 nM
[2] = molecular target: Serine/threonine-protein kinase DCLK1 (Homo sapiens) (UniProt O15075); settings: Compound concentration 1000.0 nM
[3] = molecular target: Muscarinic acetylcholine receptor M2 (Homo sapiens) (UniProt P08172); settings: Compound concentration 10.0 uM
[4] = molecular target: Mitogen-activated protein kinase 7 (Homo sapiens) (UniProt Q13164); settings: Compound concentration 1000.0 nM
[5] = molecular target: Glycogen synthase kinase-3 alpha (Homo sapiens) (UniProt P49840); settings: Compound concentration 1000.0 nM
[6] = molecular target: Proto-oncogene tyrosine-protein kinase receptor Ret (Homo sapiens) (UniProt P07949); settings: Compound concentration 1000.0 nM
[7] = molecular target: Calcium/calmodulin-dependent protein kinase kinase 2 (Homo sapiens) (UniProt Q96RR4); settings: Compound concentration 1000.0 nM
[8] = molecular target: Wee1-like protein kinase 2 (Homo sapiens) (UniProt P0C1S8); settings: Compound concentration 1000.0 nM
[9] = molecular target: Cyclin-dependent kinase 4 (Homo sapiens) (UniProt P11802); settings: Compound concentration 1000.0 nM
[10] = tested on: Mast/stem cell growth factor receptor Kit (Homo sapiens), P10721 [V559D,V654A]; settings: Compound concentration 1000.0 nM
[11] = molecular target: Calcium/calmodulin-dependent protein kinase type 1B (Homo sapiens) (UniProt Q6P2M8); settings: Compound concentration 1000.0 nM
[12] = molecular target: Mitogen-activated protein kinase 11 (Homo sapiens) (UniProt Q15759); settings: Compound concentration 1000.0 nM
[13] = molecular target: Beta-adrenergic receptor kinase 1 (Homo sapiens) (UniProt P25098); settings: Compound concentration 1000.0 nM
[14] = molecular target: Bone morphogenetic protein receptor type-1A (Homo sapiens) (UniProt P36894); settings: Compound concentration 1000.0 nM
[15] = molecular target: Serine/threonine-protein kinase 25 (Homo sapiens) (UniProt O00506); settings: Compound concentration 1000.0 nM
[16] = molecular target: Uncharacterized serine/threonine-protein kinase SBK3 (Homo sapiens) (UniProt P0C264); settings: Compound concentration 1000.0 nM
[17] = molecular target: Ribosomal protein S6 kinase alpha-2 (Homo sapiens) (UniProt Q15349); settings: Compound concentration 1000.0 nM
[18] = tested on: Epidermal growth factor receptor (Homo sapiens), P00533 [L858R]; settings: Compound concentration 1000.0 nM
[19] = molecular target: Interleukin-1 receptor-associated kinase 4 (Homo sapiens) (UniProt Q9NWZ3); settings: Compound concentration 1000.0 nM
[20] = molecular target: 5-hydroxytryptamine receptor 2A (Homo sapiens) (UniProt P28223); settings: Compound concentration 10.0 uM
[21] = molecular target: Ribosomal protein S6 kinase alpha-1 (Homo sapiens) (UniProt Q15418); settings: Compound concentration 1000.0 nM
[22] = molecular target: Casein kinase I isoform gamma-1 (Homo sapiens) (UniProt Q9HCP0); settings: Compound concentration 1000.0 nM
[23] = tested on: Epidermal growth factor receptor (Homo sapiens), P00533 [G719C]; settings: Compound concentration 1000.0 nM
[24] = molecular target: Casein kinase I isoform gamma-3 (Homo sapiens) (UniProt Q9Y6M4); settings: Compound concentration 1000.0 nM
[25] = tested on: Phosphatidylinositol 4,5-bisphosphate 3-kinase catalytic subunit alpha isoform (Homo sapiens), P42336 [H1047Y]; settings: Compound concentration 1000.0 nM
[26] = molecular target: Serine/threonine-protein kinase Nek4 (Homo sapiens) (UniProt P51957); settings: Compound concentration 1000.0 nM
[27] = molecular target: Ribosomal protein S6 kinase alpha-1 (Homo sapiens) (UniProt Q15418); settings: Compound concentration 1000.0 nM; remark: listed apart in the source
[28] = molecular target: Serine/threonine-protein kinase Nek5 (Homo sapiens) (UniProt Q6P3R8); settings: Compound concentration 1000.0 nM
[29] = molecular target: Phosphatidylinositol 5-phosphate 4-kinase type-2 gamma (Homo sapiens) (UniProt Q8TBX8); settings: Compound concentration 1000.0 nM
[30] = molecular target: Serine/threonine-protein kinase SIK3 (Homo sapiens) (UniProt Q9Y2K2); settings: Compound concentration 1000.0 nM
[31] = molecular target: Serine/threonine-protein kinase LATS2 (Homo sapiens) (UniProt Q9NRM7); settings: Compound concentration 1000.0 nM
[32] = molecular target: Calcium/calmodulin-dependent protein kinase type II subunit gamma (Homo sapiens) (UniProt Q13555); settings: Compound concentration 1000.0 nM
[33] = molecular target: TRAF2 and NCK-interacting protein kinase (Homo sapiens) (UniProt Q9UKE5); settings: Compound concentration 1000.0 nM
[34] = tested on: Phosphatidylinositol 4,5-bisphosphate 3-kinase catalytic subunit alpha isoform (Homo sapiens), P42336 [C420R]; settings: Compound concentration 1000.0 nM
[35] = molecular target: Mitogen-activated protein kinase kinase kinase 20 (Homo sapiens) (UniProt Q9NYL2); settings: Compound concentration 1000.0 nM
[36] = tested on: Receptor-type tyrosine-protein kinase FLT3 (Homo sapiens), P36888 [D835H]; settings: Compound concentration 1000.0 nM
[37] = molecular target: STE20-like serine/threonine-protein kinase (Homo sapiens) (UniProt Q9H2G2); settings: Compound concentration 1000.0 nM
[38] = molecular target: Serine/threonine-protein kinase NLK (Homo sapiens) (UniProt Q9UBE8); settings: Compound concentration 1000.0 nM
[39] = molecular target: Macrophage-stimulating protein receptor (Homo sapiens) (UniProt Q04912); settings: Compound concentration 1000.0 nM
[40] = molecular target: MAP/microtubule affinity-regulating kinase 3 (Homo sapiens) (UniProt P27448); settings: Compound concentration 1000.0 nM
[41] = molecular target: Casein kinase I isoform alpha-like (Homo sapiens) (UniProt Q8N752); settings: Compound concentration 1000.0 nM
[42] = molecular target: Cyclin-dependent kinase 14 (Homo sapiens) (UniProt O94921); settings: Compound concentration 1000.0 nM
[43] = molecular target: Serine/threonine-protein kinase Nek11 (Homo sapiens) (UniProt Q8NG66); settings: Compound concentration 1000.0 nM
[44] = molecular target: Cyclin-dependent kinase-like 2 (Homo sapiens) (UniProt Q92772); settings: Compound concentration 1000.0 nM
[45] = tested on: Tyrosine-protein kinase ABL1 (Homo sapiens), P00519 [H396P]; settings: Compound concentration 1000.0 nM

Chain of Ribosomal protein S6 kinase alpha-1 (Homo sapiens) (Q15418 whole entry, canonical isoform): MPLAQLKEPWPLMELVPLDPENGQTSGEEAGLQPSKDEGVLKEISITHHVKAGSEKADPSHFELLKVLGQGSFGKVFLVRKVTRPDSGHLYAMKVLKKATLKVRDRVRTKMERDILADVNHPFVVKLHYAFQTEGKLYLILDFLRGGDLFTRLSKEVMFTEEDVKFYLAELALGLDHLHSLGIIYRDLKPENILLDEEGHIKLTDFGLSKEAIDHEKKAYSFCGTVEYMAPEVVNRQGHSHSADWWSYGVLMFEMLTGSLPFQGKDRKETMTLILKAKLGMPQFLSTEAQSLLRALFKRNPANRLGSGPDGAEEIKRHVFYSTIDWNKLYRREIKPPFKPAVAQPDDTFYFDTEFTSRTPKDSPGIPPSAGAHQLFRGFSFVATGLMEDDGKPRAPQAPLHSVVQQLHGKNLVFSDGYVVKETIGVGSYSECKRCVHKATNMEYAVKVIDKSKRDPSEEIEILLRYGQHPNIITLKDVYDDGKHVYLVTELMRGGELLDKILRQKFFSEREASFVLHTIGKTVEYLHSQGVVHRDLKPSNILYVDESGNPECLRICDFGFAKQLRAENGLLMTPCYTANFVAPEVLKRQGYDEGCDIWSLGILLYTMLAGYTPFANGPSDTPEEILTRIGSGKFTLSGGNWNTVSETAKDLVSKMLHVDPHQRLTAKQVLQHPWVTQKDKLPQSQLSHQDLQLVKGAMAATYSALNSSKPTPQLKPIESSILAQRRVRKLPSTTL
Chain of Serine/threonine-protein kinase NLK (Homo sapiens) (Q9UBE8 whole entry): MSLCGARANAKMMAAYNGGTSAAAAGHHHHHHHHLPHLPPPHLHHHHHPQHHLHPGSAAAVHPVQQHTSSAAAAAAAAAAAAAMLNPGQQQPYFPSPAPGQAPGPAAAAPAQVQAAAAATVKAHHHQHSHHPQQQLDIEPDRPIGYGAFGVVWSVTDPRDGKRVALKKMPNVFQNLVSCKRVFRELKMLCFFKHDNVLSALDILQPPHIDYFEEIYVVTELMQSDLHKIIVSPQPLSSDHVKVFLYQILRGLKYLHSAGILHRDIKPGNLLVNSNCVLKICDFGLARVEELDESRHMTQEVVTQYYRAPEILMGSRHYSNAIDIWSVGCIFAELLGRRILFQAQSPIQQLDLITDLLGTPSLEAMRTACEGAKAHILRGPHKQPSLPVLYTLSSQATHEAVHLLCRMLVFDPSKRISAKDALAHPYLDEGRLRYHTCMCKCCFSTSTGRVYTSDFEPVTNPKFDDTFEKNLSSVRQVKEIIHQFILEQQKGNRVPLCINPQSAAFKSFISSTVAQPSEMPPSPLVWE
Chain of Serine/threonine-protein kinase 25 (Homo sapiens) (O00506 whole entry, looked up): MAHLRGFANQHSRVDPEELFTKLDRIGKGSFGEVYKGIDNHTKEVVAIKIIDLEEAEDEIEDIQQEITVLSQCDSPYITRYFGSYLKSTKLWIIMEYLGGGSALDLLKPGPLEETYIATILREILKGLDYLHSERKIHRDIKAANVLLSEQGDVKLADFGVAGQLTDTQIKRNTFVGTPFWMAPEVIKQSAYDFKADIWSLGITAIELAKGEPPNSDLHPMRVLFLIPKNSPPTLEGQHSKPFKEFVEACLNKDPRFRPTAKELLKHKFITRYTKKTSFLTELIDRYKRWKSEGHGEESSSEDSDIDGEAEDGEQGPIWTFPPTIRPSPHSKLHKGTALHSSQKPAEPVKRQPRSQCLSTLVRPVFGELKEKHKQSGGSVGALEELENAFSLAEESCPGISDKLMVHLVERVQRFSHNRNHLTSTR
Chain of Serine/threonine-protein kinase PAK 6 (Homo sapiens) (Q9NQU5 whole entry, looked up): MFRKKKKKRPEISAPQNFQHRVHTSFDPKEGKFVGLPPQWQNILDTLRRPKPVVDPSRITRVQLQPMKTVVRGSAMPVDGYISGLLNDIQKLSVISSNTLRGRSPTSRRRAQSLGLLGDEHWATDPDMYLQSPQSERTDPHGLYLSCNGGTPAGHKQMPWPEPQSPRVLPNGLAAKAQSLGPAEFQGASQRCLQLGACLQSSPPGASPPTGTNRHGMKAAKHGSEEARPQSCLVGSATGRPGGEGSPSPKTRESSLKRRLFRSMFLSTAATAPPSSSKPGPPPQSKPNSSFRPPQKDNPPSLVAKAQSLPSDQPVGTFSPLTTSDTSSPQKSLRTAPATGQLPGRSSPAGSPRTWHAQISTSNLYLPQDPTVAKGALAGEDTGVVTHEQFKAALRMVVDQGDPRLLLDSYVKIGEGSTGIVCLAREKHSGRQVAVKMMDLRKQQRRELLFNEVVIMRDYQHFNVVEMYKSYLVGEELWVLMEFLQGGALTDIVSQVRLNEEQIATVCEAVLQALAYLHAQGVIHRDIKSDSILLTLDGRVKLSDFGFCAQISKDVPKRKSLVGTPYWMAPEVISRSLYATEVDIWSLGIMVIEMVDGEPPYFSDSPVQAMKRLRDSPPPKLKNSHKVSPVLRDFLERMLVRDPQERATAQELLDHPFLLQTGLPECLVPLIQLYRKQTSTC
Chain of Wee1-like protein kinase 2 (Homo sapiens) (P0C1S8 whole entry, looked up): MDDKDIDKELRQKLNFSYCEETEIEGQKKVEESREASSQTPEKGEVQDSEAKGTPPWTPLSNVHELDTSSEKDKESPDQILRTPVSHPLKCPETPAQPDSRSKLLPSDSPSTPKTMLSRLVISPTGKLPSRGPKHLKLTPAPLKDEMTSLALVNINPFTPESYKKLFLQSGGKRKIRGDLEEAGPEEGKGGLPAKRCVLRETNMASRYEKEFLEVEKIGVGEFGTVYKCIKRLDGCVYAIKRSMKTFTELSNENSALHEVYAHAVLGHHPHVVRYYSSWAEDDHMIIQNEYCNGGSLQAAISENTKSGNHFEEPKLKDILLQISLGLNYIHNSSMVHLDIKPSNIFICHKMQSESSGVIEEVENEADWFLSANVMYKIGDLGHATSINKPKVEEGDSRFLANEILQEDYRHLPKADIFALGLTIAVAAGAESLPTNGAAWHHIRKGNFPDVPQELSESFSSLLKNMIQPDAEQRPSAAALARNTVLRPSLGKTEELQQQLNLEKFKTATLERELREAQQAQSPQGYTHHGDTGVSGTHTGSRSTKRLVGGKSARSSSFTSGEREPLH
Chain of Cyclin-dependent kinase-like 2 (Homo sapiens) (Q92772 whole entry): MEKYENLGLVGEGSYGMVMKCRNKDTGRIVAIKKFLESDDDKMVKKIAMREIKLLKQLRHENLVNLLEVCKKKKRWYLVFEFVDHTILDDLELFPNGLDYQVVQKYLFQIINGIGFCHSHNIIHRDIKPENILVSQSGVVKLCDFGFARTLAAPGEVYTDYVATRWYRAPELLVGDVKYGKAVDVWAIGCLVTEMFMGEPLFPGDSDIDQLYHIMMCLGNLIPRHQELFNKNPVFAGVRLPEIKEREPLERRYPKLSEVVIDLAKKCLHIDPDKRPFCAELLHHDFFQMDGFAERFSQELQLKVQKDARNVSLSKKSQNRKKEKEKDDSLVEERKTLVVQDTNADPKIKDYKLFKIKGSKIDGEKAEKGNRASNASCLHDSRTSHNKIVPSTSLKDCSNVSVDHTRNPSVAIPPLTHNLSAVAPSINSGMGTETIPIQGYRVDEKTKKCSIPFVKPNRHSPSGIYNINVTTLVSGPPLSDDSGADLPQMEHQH
Chain of Proto-oncogene tyrosine-protein kinase receptor Ret (Homo sapiens) (P07949 whole entry): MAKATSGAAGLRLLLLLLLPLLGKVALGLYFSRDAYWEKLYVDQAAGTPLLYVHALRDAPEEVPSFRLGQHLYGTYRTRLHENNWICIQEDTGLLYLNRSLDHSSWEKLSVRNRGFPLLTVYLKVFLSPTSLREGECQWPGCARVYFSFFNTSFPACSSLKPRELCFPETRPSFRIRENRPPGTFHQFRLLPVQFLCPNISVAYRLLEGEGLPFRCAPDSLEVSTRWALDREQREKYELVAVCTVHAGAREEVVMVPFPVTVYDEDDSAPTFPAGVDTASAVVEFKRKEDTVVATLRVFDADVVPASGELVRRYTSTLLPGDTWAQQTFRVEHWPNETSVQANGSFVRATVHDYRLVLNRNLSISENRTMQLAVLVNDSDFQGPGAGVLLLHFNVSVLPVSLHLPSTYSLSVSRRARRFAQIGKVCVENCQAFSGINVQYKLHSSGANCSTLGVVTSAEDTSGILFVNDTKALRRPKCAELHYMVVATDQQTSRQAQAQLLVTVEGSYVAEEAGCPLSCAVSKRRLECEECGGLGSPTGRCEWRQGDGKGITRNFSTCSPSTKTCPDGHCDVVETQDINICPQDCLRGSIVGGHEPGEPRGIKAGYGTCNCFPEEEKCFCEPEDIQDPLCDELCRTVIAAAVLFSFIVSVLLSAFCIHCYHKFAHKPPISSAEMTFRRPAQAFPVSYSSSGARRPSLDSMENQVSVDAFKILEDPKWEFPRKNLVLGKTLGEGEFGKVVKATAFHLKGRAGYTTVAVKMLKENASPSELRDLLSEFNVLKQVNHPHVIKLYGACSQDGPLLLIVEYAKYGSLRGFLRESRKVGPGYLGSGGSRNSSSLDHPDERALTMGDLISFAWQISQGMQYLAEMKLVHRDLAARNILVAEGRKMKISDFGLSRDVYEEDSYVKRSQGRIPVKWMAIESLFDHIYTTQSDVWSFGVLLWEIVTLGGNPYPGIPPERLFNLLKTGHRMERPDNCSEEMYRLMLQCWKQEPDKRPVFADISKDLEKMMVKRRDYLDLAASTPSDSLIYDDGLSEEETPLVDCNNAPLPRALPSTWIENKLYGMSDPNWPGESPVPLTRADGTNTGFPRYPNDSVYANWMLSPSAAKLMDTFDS
Chain of Phosphatidylinositol 5-phosphate 4-kinase type-2 gamma (Homo sapiens) (Q8TBX8 whole entry): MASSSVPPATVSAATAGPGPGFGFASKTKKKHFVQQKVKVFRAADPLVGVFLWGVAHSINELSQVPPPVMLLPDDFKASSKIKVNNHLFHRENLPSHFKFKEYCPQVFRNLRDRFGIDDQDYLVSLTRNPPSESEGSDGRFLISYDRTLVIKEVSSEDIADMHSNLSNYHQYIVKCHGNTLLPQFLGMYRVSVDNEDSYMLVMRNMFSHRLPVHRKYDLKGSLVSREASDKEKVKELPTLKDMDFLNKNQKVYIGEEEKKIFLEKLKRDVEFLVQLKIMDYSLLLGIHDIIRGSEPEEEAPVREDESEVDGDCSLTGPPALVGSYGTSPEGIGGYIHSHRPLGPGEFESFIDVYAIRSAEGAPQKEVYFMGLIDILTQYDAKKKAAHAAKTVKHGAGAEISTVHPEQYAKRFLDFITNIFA

O=C(N[C@H]1CCCCC/C=C\C2C[C@@]2(C(=O)O)NC(=O)[C@@H]2C[C@@H](Oc3ccncc3)CN2C1=O)OC1CCCC1 (stereo not given in full) [BI 1675]
inactive: residual activity [1] 100% | residual activity [2] 97% | inhibition [3] -1.71% | residual activity [4] 90% | residual activity [5] 100% | residual activity [6] 94% | residual activity [7] 95% | residual activity [8] 100% | residual activity [9] 100% | residual activity [10] 63% | residual activity [11] 99% | residual activity [12] 100% | residual activity [13] 51% | residual activity [14] 100% | residual activity [15] 97% | residual activity [16] 79% | residual activity [17] 75% | residual activity [18] 96% | residual activity [19] 88% | inhibition [20] -7.7% | residual activity [21] 100% | residual activity [22] 88% | residual activity [23] 59% | residual activity [24] 100% | residual activity [25] 100% | residual activity [26] 79% | residual activity [27] 82% | residual activity [28] 91% | residual activity [29] 100% | residual activity [30] 95% | residual activity [31] 100% | residual activity [32] 86% | residual activity [33] 78% | residual activity [34] 100% | residual activity [35] 90% | residual activity [36] 56% | residual activity [37] 100% | residual activity [38] 100% | residual activity [39] 97% | residual activity [40] 100% | residual activity [41] 100% | residual activity [42] 91% | residual activity [43] 100% | residual activity [44] 100% | residual activity [45] 81%

COc1ccc2c(O[C@@H]3C[C@H]4C(=O)N[C@]5(C(=O)O)CC5/C=C\CCCCC[C@H](NC(=O)OC5CCCC5)C(=O)N4C3)cc(-c3csc(NC(=O)C(C)C)n3)nc2c1C (stereo not given in full) [BI 1230]
inactive: residual activity [1] 100% | residual activity [2] 76% | inhibition [3] 3.22% | residual activity [4] 100% | residual activity [5] 100% | residual activity [6] 91% | residual activity [7] 100% | residual activity [8] 100% | residual activity [9] 100% | residual activity [10] 74% | residual activity [11] 88% | residual activity [12] 100% | residual activity [13] 83% | residual activity [14] 100% | residual activity [15] 100% | residual activity [16] 99% | residual activity [17] 100% | residual activity [18] 100% | residual activity [19] 71% | inhibition [20] 11.4% | residual activity [21] 74% | residual activity [22] 94% | residual activity [23] 76% | residual activity [24] 100% | residual activity [25] 100% | residual activity [26] 93% | residual activity [27] 100% | residual activity [28] 98% | residual activity [29] 89% | residual activity [30] 97% | residual activity [31] 98% | residual activity [32] 100% | residual activity [33] 96% | residual activity [34] 100% | residual activity [35] 83% | residual activity [36] 73% | residual activity [37] 100% | residual activity [38] 99% | residual activity [39] 100% | residual activity [40] 95% | residual activity [41] 100% | residual activity [42] 88% | residual activity [43] 84% | residual activity [44] 89% | residual activity [45] 77%
